{"source": "patent US12036222B2", "about": "“Methods of treating cancers overexpressing CARM1 with EZH2 inhibitors and a PARP inhibitor” (The Wistar Institut of Anatomy and Biology, priority 2018, dated 2024)", "key": {"[1]": {"tested_on": "CARM1-low EOC cells such as CAOV3 and PEO1", "test": "Colony formation assay in CARM1-low EOC cells", "type": "cell-based, human", "conditions": "10 μM GSK126", "protocol": "(§1) FIG. 33 illustrates relative growth of the indicated HOSE, FTE, and EOC cancer cell lines with high or low CARM1 expression treated with 10 μM GSK126 or vehicle in a colony formation assay as determined by NIH Image J quantification.\n(§2) 500 to 5,000 cell were plated into a 24 well tissue culture plate and treated with the indicated compounds. Medium was changed every three days with appropriate drug doses for 12 days or until control wells became confluent. Colonies were washed twice with PBS and fixed with 10% methanol and 10% acetic acid in distilled water. Fixed colonies were stained with 0.005% crystal violet. Integrated density was measured using NIH ImageJ software."}, "[2]": {"tested_on": "CARM1-expressing cell lines (A1847, OVCAR10, and PEO4)", "test": "Colony formation assay and GSK126 response curves in CARM1-expressing ovarian cancer cell lines", "type": "cell-based, human", "protocol": "In FIG. 4, CARM1 expression in a panel of high-grade ovarian carcinomas is depicted. FIG. 5 illustrates the results of a colony formation assay with a panel of normal and ovarian cancer cell lines with DMSO and with 10 μM of the EZH2 inhibitor GSK126 (Formula (1)).\nIn FIG. 7, response curves for GSK126 in a panel of normal and ovarian cancer cell lines are shown.\nas §2"}, "[3]": {"tested_on": "promoter regions of the human DAB2, DLC1, and NOXA genes", "test": "ChIP-qPCR at promoters of EZH2/BAF155 target genes", "type": "cell-based", "conditions": "A1847 cells", "description": "FIGS. 58 to 61 illustrate the results of a ChIP analysis using anti-EZH2 (FIG. 58), anti-H3K27Me3 (FIG. 59), anti-BAF155 (FIG. 60), or anti-RNA Pol II (FIG. 61) antibodies. An isotype matched IgG was used as a negative control. ChIP products were subjected to qPCR analysis using primers specific for the promoter regions of the human DAB2, DLC1, and NOXA genes. Data is representative of three independent experiments. * p<0.001 compared with IgG controls and #p<0.001 compared with parental controls.\nChIP was performed as described in Tu et al. Developmental Cell(2011) 21:1077-91. The following antibodies were used to perform ChIP: anti-H3K27Me3 (Cell Signaling, Cat. No: 9733), anti-BAF155 (Santa Cruz, Cat. No: sc-9746), anti-RNA polymerase II (Santa Cruz, Cat. No: sc-899) or anti-EZH2 (Cell Signaling, Cat. No: 5246). An isotype matched IgG was used as a negative control. ChIP DNA was analyzed by quantitative PCR against the promoter of the indicated genes using the following primers: DAB2 Forward: 5′-[…]-3′ (SEQ ID NO: 10) and DAB2 Reverse: 5′-[…]-3′ (SEQ ID NO: 11); DLC1 Forward: 5′-[…]-3′ (SEQ ID NO: 12) and DLC1 Reverse: 5′-[…]-3′ (SEQ ID NO: 13); NOXA Forward: 5′-[…]-3′ (SEQ ID NO: 14) and NOXA Reverse: 5′-[…]-3′ (SEQ ID NO: 15); TIMP3 Forward: 5′-[…]-3′ (SEQ ID NO: 16) and TIMP3 Reverse: 5′-[…]-3′ (SEQ ID NO: 17)."}, "HOSE or FTE cells": {"tested_on": "HOSE or FTE cells", "test": "Colony formation assay in normal HOSE and FTE cells", "type": "cell-based, human", "conditions": "10 μM GSK126, colony formation", "protocol": "as §1, §2"}, "[4]": {"tested_on": "parental and CARM1 knockout A1847 cells, CARM1 high OVCAR10 cells", "test": "Apoptosis markers (Annexin V, cleaved caspase 3, cleaved PARP)", "type": "cell-based, human", "conditions": "10 μM GSK126, 7 days; CARM1-dependent manner", "protocol": "FIG. 37 illustrates control parental and CARM1 knockout A1847 cells were treated with 10 μM GSK126 or vehicle for 7 days. Percentage of Annexin V positive apoptotic cells was quantified. *p<0.001 and #p>0.05.\nFIG. 38 illustrates levels of cleaved caspase 3 and cleaved PARP in control parental and CARM1 knockout A1847 cells treated with 10 μM GSK126 for 7 days. Expression of 3-actin was used as a loading control.\nFIG. 39A illustrates the expression of apoptosis markers cleaved in CARM1 high OVCAR10 cells as a result of treatment with GSK126. CARM1 high OVCAR10 cells were treated with 10 μM GSK126 or vehicle control for 7 days. The expression of apoptosis markers cleaved caspase 3 and cleaved PARP were determined by immunoblot. Expression of β-actin was used as a loading control.\nPhosphatidylserine externalization was detected using an Annexin V staining kit (Millipore) following the manufacturer's instructions. Annexin V-positive cells were detected using the Guava System and analyzed with the Guava Nexin software Module (Millipore)."}, "[5]": {"tested_on": "tumors formed by CARM1 knockout A1847 cells", "test": "Subcutaneous xenograft model, CARM1 knockout A1847 cells", "type": "in vivo, NSG mice", "conditions": "50 mg/kg daily i.p.", "protocol": "The protocols were approved by the Institutional Animal Care and Use Committee (IACUC). 5×10^6 control A1847 or A1847 CARM1 knockout cells were unilaterally injected subcutaneously into 6-8-week old female immunocompromised NSG mice (n=5 per group). One week after injection the mice were randomized and treated with vehicle control (20% captisol) or GSK126 (50 mg/kg daily). Tumor size was measured every 3 days for 3 weeks. At end of the experiments, tumors were surgically dissected and tumor burden was calculated based on tumor weight.\nEZH2 inhibitors, such as GSK126, are used safely in clinical trials for hematopoietic malignancies (Ribrag et al. Eur J Cancer (2014) 50:197). To determine the effects of EZH2 inhibition in vivo on the growth of CARM1-expressing ovarian tumors, two xenograft models were utilized. In the subcutaneous xenograft models, the injected CARM1-expressing A1847 cells were first allowed to grow for one week to establish the tumors. Mice were then randomized and treated daily with vehicle control or GSK126 (50 mg/kg) by intraperitioneal (i.p.) injection as reported (see, e.g., Bitler et al. Nature Medicine (2015) 21:231-8 and McCabe et al. Nature (2012) 492:108-12). […] To more closely mimic the tumor microenvironment, A1847 cells were orthotopically transplanted into the bursa covering the ovary of immunocompromised NSG mice. […]"}, "NHEJ genes": {"tested_on": "NHEJ genes", "test": "Expression of NHEJ genes", "type": "cell-based", "conditions": "CARM1 expressing cells"}}, "note": "“Also recorded” adds a separate entry of the source."}
{"smiles": "CC[C@H](C)n1cc(C)c2c(C(=O)NCc3c(C)cc(C)[nH]c3=O)cc(-c3ccc(N4CCNCC4)nc3)cc21", "note": "[GSK126, (S)-1-(sec-butyl)-N-((4,6-dimethyl-2-oxo-1,2-dihydropyridin-3-yl)methyl)-3-methyl-6-(6-(piperazin-1-yl)pyridin-3-yl)-1H-indole-4-carboxamide]", "values": [{"measurement": "response of CARM1-low EOC cells", "setting": "[1]", "value": "did not respond"}, {"measurement": "sensitivity in colony formation assay", "setting": "[2]; 10 μM GSK126 vs DMSO, panel of normal and ovarian cancer cell lines", "value": "particular sensitivity of CARM1-expressing cells"}, {"measurement": "IC50 values from GSK126 response curves", "setting": "[2]; CARM1-expressing lines A1847, OVCAR10, PEO4 compared with rest of panel of normal and ovarian cancer cell lines, numbers only in FIG. 8", "value": "Significantly reduced IC50 values"}, {"measurement": "correlation of cellular response with CARM1 expression levels", "setting": "[2]; panel of EOC cell lines, 10 μM GSK126", "value": "correlation between CARM1 expression levels and cellular response to GSK126"}, {"measurement": "EZH2 association with target genes", "setting": "[3]", "value": "without affecting EZH2's association with its target genes"}, {"measurement": "H3K27Me3 occupancy at target gene loci", "setting": "[3]", "value": "decreased H3K27Me3 occupancy"}, {"measurement": "growth of HOSE or FTE cells", "setting": "HOSE or FTE cells", "value": "did not affect the growth; also recorded: didn't affect the growth"}, {"measurement": "markers of apoptosis", "setting": "[4]", "value": "induced"}, {"measurement": "growth of tumors formed by CARM1 knockout A1847 cells", "setting": "[5]", "value": "failed to inhibit the growth"}, {"measurement": "expression of NHEJ genes", "setting": "NHEJ genes", "value": "restores the expression of NHEJ genes"}]}
